Results taken from ChEMBL document CHEMBL4152348, “Discovery of a Potent and Orally Bioavailable Cyclophilin Inhibitor Derived from the Sanglifehrin Macrocycle” (J Med Chem, 2018).

Experiments:
[1] = Lipophilicity, log D of the compound at pH 7.4 after 30 mins by HPLC/UV analysis; format: physicochemical; conditions: buffer
[2] = Apparent permeability across basolateral to apical side in human Caco2 cells measured at 60 to 120 mins by LC/MS/MS analysis; format: ADME, cell-based; conditions: for Papp B→A: Caco-2, read-out: permeability; for permeability: Caco-2
[3] = Apparent permeability across apical to basolateral side in human Caco2 cells measured at 60 to 120 mins by LC/MS/MS analysis; format: ADME, cell-based; conditions: for Papp A→B: Caco-2, read-out: permeability; for permeability: Caco-2
[4] = Aqueous solubility of the compound at pH 7.2; format: physicochemical
[5] = Half life in human plasma at 2 uM up to 4 hrs by LC/MS/MS analysis; format: ADME, cell-free
[6] = Half life in dog plasma at 2 uM up to 4 hrs by LC/MS/MS analysis; format: ADME, cell-free, Canis lupus familiaris
[7] = Half life in rat plasma at 2 uM up to 4 hrs by LC/MS/MS analysis; format: ADME, cell-free
[8] = Oral bioavailability in Beagle dog at 5 mg/kg by HPLC/MS analysis; format: ADME, organism-based, Canis lupus familiaris; conditions: in vivo
[9] = Clearance in Sprague-Dawley rat at 1 mg/kg, iv or 5 mg/kg, po by HPLC/MS analysis; format: ADME, organism-based; conditions: in vivo
[10] = Clearance in Beagle dog at 1 mg/kg, iv or 5 mg/kg, po by HPLC/MS analysis; format: ADME, organism-based, Canis lupus familiaris; conditions: in vivo
[11] = Terminal half life in Sprague-Dawley rat at 1 mg/kg, iv or 5 mg/kg, po by HPLC/MS analysis; format: ADME, organism-based; conditions: in vivo, read-out: beta t1/2 (converted)
[12] = Volume of distribution at steady state in Sprague-Dawley rat at 1 mg/kg, iv or 5 mg/kg, po by HPLC/MS analysis; format: ADME, organism-based; conditions: in vivo, read-out: Vdss
[13] = Terminal half life in Beagle dog at 1 mg/kg, iv or 5 mg/kg, po by HPLC/MS analysis; format: ADME, organism-based, Canis lupus familiaris; conditions: in vivo, read-out: beta t1/2 (converted)
[14] = Oral bioavailability in Sprague-Dawley rat at 5 mg/kg by HPLC/MS analysis; format: ADME, organism-based; conditions: in vivo
[15] = Volume of distribution at steady state in Beagle dog at 1 mg/kg, iv or 5 mg/kg, po by HPLC/MS analysis; format: ADME, organism-based, Canis lupus familiaris; conditions: in vivo, read-out: Vdss
[16] = Terminal half life in Sprague-Dawley rat at 10 mg/kg, iv or 10 mg/kg, po by HPLC/MS analysis; format: ADME, organism-based; conditions: in vivo, read-out: beta t1/2 (converted)
[17] = Clearance in Sprague-Dawley rat at 10 mg/kg, iv or 10 mg/kg, po by HPLC/MS analysis; format: ADME, organism-based; conditions: in vivo
[18] = Volume of distribution at steady state in Sprague-Dawley rat at 10 mg/kg, iv or 10 mg/kg, po by HPLC/MS analysis; format: ADME, organism-based; conditions: in vivo, read-out: Vdss
[19] = Oral bioavailability in Sprague-Dawley rat at 10 mg/kg by HPLC/MS analysis; format: ADME, organism-based; conditions: in vivo

Structure (SMILES) | logD at 0.5 h [1] | Papp B→A [2] | Papp A→B [3] | half-life at 2 µM [5] | half-life at 2 µM [6] | half-life at 2 µM [7] | other results
CC(C)[C@@H]1OC(=O)C2(/C=C/c3ccc4ccc(nc4c3)[C@@H](C)NC(=O)[C@@H]3CCCN(N3)C(=O)[C@H](C)NC1=O)COCCOC2 | 2.1 | 10 ×10⁻⁶ cm/s | 0.72 ×10⁻⁶ cm/s | – | – | – | –
CC(C)[C@@H]1OC(=O)C2(/C=C/c3ccc4ccc(nc4c3)[C@@H](C)NC(=O)[C@@H]3CCCN(N3)C(=O)[C@H](C)NC1=O)CCOCC2 | 2.4 | 19 ×10⁻⁶ cm/s | 3.2 ×10⁻⁶ cm/s | – | – | – | –
CC(C)[C@@H]1OC(=O)C(C)(C)/C=C/c2cc3cc(ccc3cn2)[C@@H](C)NC(=O)[C@@H]2CCCN(N2)C(=O)[C@H](C)NC1=O | 2 | 7.9 ×10⁻⁶ cm/s | 0.1 ×10⁻⁶ cm/s | > 25 h | 12.2 h | 9.4 h | –
CC(C)[C@@H]1OC(=O)C(CO)(CO)/C=C/c2ccc3ccc(nc3c2)[C@@H](C)NC(=O)[C@@H]2CCCN(N2)C(=O)[C@H](C)NC1=O | 1 | 0.59 ×10⁻⁶ cm/s | 0.08 ×10⁻⁶ cm/s | – | – | – | –
CC(C)[C@@H]1OC(=O)C(C)(C)/C=C/c2ccc3ccc(nc3c2)[C@@H](C)NC(=O)[C@@H]2CCCN(N2)C(=O)[C@H](C)NC1=O | 3.2 | – | – | > 25 h | > 25 h | 6.87 h | clearance [9]: 10.8 mL/min/kg; clearance [10]: 6 mL/min/kg; half-life [11]: 3.9 h; Vd [12]: 2.5 L/kg; half-life [13]: 10 h; permeability [2]: 47 ×10⁻⁶ cm/s; bioavailability [8]: 100%; bioavailability [14]: 90%; Vd [15]: 3.9 L/kg; permeability [3]: 17 ×10⁻⁶ cm/s
CC(C)[C@@H]1OC(=O)C2(/C=C/c3ccc4ccc(nc4c3)[C@@H](C)NC(=O)[C@@H]3CCCN(N3)C(=O)[C@H](C)NC1=O)CCS(=O)(=O)CC2 | 1.9 | 12 ×10⁻⁶ cm/s | 0.48 ×10⁻⁶ cm/s | – | – | – | –
CC(C)[C@@H]1OC(=O)C2(/C=C/c3ccc4ccc(nc4c3)[C@@H](C)NC(=O)[C@@H]3CCCN(N3)C(=O)[C@H](C)NC1=O)COCOC2 | 2.2 | 13 ×10⁻⁶ cm/s | 1.5 ×10⁻⁶ cm/s | > 25 h | > 25 h | > 25 h | clearance [10]: 1.33 mL/min/kg; half-life [13]: 25 h; half-life [16]: 24 h; bioavailability [8]: 55%; clearance [17]: 7 mL/min/kg; Vd [18]: 12 L/kg; Vd [15]: 2.3 L/kg; bioavailability [19]: 100%
CC(C)[C@@H]1OC(=O)C2(/C=C/c3ccc4ccc(nc4c3)[C@@H](C)NC(=O)[C@@H]3CCCN(N3)C(=O)[C@H](C)NC1=O)CCC(O)CC2 (stereo in doubt; 47) | 1.9 | 9.2 ×10⁻⁶ cm/s | 0.61 ×10⁻⁶ cm/s | – | – | – | –
CC(C)[C@@H]1OC(=O)C2(/C=C/c3ccc4ccc(nc4c3)[C@@H](C)NC(=O)[C@@H]3CCCN(N3)C(=O)[C@H](C)NC1=O)CCC(O)CC2 (stereo in doubt; 48) | – | – | – | – | – | – | permeability [2]: 7.1 ×10⁻⁶ cm/s; permeability [3]: 0.9 ×10⁻⁶ cm/s

Now from value to compound, other results behind:

logD at 0.5 h [1] | Papp B→A [2] | Papp A→B [3] | half-life at 2 µM [5] | half-life at 2 µM [6] | half-life at 2 µM [7] | Structure (SMILES) | other results
2.1 | 34 ×10⁻⁶ cm/s | 2.3 ×10⁻⁶ cm/s | > 25 h | > 25 h | – | CC(C)[C@@H]1NC(=O)C(C)(C)/C=C/c2cc3cc(ccc3cn2)[C@@H](C)OC(=O)[C@@H]2CCCN(N2)C(=O)[C@H](C)NC1=O | solubility [4]: < 6 µg/mL
2.5 | 38 ×10⁻⁶ cm/s | 6.2 ×10⁻⁶ cm/s | > 25 h | > 25 h | – | CC(C)[C@@H]1NC(=O)C/C=C/c2ccc3ccc(cc3c2)[C@@H](C)OC(=O)[C@@H]2CCCN(N2)C(=O)[C@H](C)NC1=O | –
1.6 | 25 ×10⁻⁶ cm/s | 0.33 ×10⁻⁶ cm/s | > 25 h | > 25 h | 0.133 h | CC(C)[C@@H]1NC(=O)CC/C=C/c2cc3cc(ccc3cn2)[C@@H](C)OC(=O)[C@@H]2CCCN(N2)C(=O)[C@H](C)NC1=O | –
2.9 | 31 ×10⁻⁶ cm/s | 12 ×10⁻⁶ cm/s | > 25 h | 10 h | 0.0833 h | CO[C@H]1C(=O)N[C@@H](C(C)C)C(=O)N[C@@H](C)C(=O)N2CCC[C@H](N2)C(=O)O[C@H](C)c2cccc(c2)/C=C/CC[C@H]1C | –
1.1 | 13 ×10⁻⁶ cm/s | 0.32 ×10⁻⁶ cm/s | 9.32 h | 6.95 h | 0.133 h | CC(C)[C@@H]1NC(=O)C/C=C/c2cc3cc(ccc3cn2)[C@@H](C)OC(=O)[C@@H]2CCCN(N2)C(=O)[C@H](C)NC1=O | bioavailability [8]: 8%
2.7 | 21 ×10⁻⁶ cm/s | 2 ×10⁻⁶ cm/s | 17.1 h | > 25 h | 0.25 h | CC(C)[C@@H]1NC(=O)C(C)(C)/C=C/c2ccc3ccc(nc3c2)[C@@H](C)OC(=O)[C@@H]2CCCN(N2)C(=O)[C@H](C)NC1=O | solubility [4]: < 6 µg/mL
3.1 | 33 ×10⁻⁶ cm/s | 13 ×10⁻⁶ cm/s | – | – | – | CO[C@H]1CC[C@@]2(/C=C/c3ccc4ccc(nc4c3)[C@@H](C)NC(=O)[C@@H]3CCCN(N3)C(=O)[C@H](C)NC(=O)[C@H](C(C)C)OC2=O)CC1 | –
2.1 | 37 ×10⁻⁶ cm/s | 4.4 ×10⁻⁶ cm/s | 12.5 h | 17.4 h | 0.0833 h | CO[C@@H]1/C=C/c2cc3cc(ccc3cn2)[C@@H](C)OC(=O)[C@@H]2CCCN(N2)C(=O)[C@H](C)NC(=O)[C@H](C(C)C)NC(=O)[C@@H]1C | –
2.1 | 3.5 ×10⁻⁶ cm/s | 1.2 ×10⁻⁶ cm/s | 8.87 h | > 25 h | – | CC(C)[C@@H]1NC(=O)C/C=C/c2ccc3ccc(nc3c2)[C@@H](C)OC(=O)[C@@H]2CCCN(N2)C(=O)[C@H](C)NC1=O | –
